Measurements published in ChEMBL document CHEMBL4257529, “Antifungal amphiphilic kanamycins: new life for an old drug” (Medchemcomm, 2018).
≈ marks a conversion by molar mass, not a printed value.

What was measured:
Type in all cases: functional
Candida albicans [1] = assay: Antifungal activity against Candida albicans 94-2181
Fusarium graminearum [2] = assay: Antifungal activity against Fusarium graminearum infected in wheat plant assessed as fusarium head blight severity at 360 mg/L (reference value: 75%)
Candida albicans [3] = assay: Antifungal activity against resistant Candida albicans ATCC 64124
Fusarium graminearum [4] = assay: Synergistic antifungal activity against Fusarium graminearum B4-5A strain E in presence of fluconazole after 48 hrs by microdilution assay
Fusarium graminearum [5] = assay: Synergistic antifungal activity against Fusarium graminearum infected in wheat plant assessed as contamination of wheat heads and kernels with deoxynivalenol at 360 mg/L in presence of 4 ml/L pyraclostrobin (reference value: 1.2 ppm)
Fusarium graminearum [6] = assay: Synergistic antifungal activity against Fusarium graminearum infected in wheat plant assessed as fusarium head blight severity at 180 mg/L in presence of 0.438 L/ha prosaro 421 SC (reference value: 75%)
Fusarium graminearum [7] = assay: Synergistic antifungal activity against Fusarium graminearum B4-5A strain B in presence of fluconazole after 48 hrs by microdilution assay
Aspergillus niger = assay: Antifungal activity against Aspergillus niger
Fusarium graminearum [8] = assay: Synergistic antifungal activity against Fusarium graminearum B4-5A strain E in presence of fluconazole after 48 hrs by checkerboard method
Fusarium graminearum [9] = assay: Synergistic antifungal activity against Fusarium graminearum infected in wheat plant assessed as fusarium head blight index at 180 mg/L in presence of 0.438 L/ha prosaro 421 SC (reference value: 53%)
Fusarium graminearum [10] = assay: Antifungal activity against Fusarium graminearum infected in wheat plant assessed as contamination of wheat heads and kernels with deoxynivalenol at 360 mg/L (reference value: 1.2 ppm)
Fusarium oxysporum = assay: Antifungal activity against Fusarium oxysporum
Aspergillus flavus = assay: Antifungal activity against Aspergillus flavus
Candida tropicalis = assay: Antifungal activity against Candida tropicalis 95-41
Clavispora lusitaniae = assay: Antifungal activity against Candida lusitaniae 95-767
Candida albicans [11] = assay: Antifungal activity against Candida albicans B-311

`CCCCCCCCS(=O)(=O)OC[C@H]1O[C@H](O[C@@H]2[C@@H](O)[C@H](O[C@H]3O[C@H](CN)[C@@H](O)[C@H](O)[C@H]3O)[C@@H](N)C[C@H]2N)[C@H](O)[C@@H](N)[C@@H]1O` was tested, and the MIC (Candida albicans [1]) was greater than 7.8 µg/mL, the Activity (Fusarium graminearum [2]) was 62% and the MIC (Candida albicans [3]) was 31.3 µg/mL (≈ 47.4 µM). The MIC (Fusarium graminearum [4]) was 4 µg/mL, the Activity (Fusarium graminearum [5]) was 1.6 ppm and the Activity (Fusarium graminearum [6]) was 55%. The MIC (Fusarium graminearum [7]) was 4 µg/mL, the MIC (Aspergillus niger) was greater than 150 µg/mL and the “fractional inhibitory concentration index (FICI)” value (Fusarium graminearum [8]) was 0.7. The Activity_index (Fusarium graminearum [9]) was 6%, the Activity (Fusarium graminearum [10]) was 1.4 ppm and the MIC (Fusarium oxysporum) was 31.3 µg/mL (≈ 47.4 µM). For the same compound, the MIC (Aspergillus flavus) was 300 µg/mL (≈ 454 µM), the MIC (Candida tropicalis) was 15.6 µg/mL (≈ 23.6 µM) and the MIC (Clavispora lusitaniae) was greater than 7.8 µg/mL. For the same compound, the MIC (Candida albicans [11]) was greater than 7.8 µg/mL.
